Test results from patent US8673843B2, “NMDA receptors modulators and uses thereof” (Northwestern University, priority 2010, dated 2014).
Residues, ends and D or L forms follow the SMILES beside them.

Molecular target: NMDA receptor (Rattus norvegicus, UniProt P35439)
Test: [3H] MK-801 binding assay
Conditions: 50 μM glutamate; for Potency: rat forebrain crude synaptic membranes, [3H]MK-801 5 nM
Experimental: Male 2-3 month old rats were decapitated without anesthesia by guillotine, and the brains were rapidly removed (˜90 sec) and whole cortex and hippocampus dissected on an ice cold platform, frozen on dry ice, and stored at −80° C. Samples were homogenized in 20 volumes of ice cold 5 mM Tris-HCl pH 7.4 by Brinkman Polytron and pelleted 48,000×g for 20 min at 4° C., and washed an additional 3 times as described above. Membranes were then resuspended in 5 mM EDTA and 15 mM Tris-HCl pH 7.4 and incubated for 1 hr at 37° C., membranes pelleted at 48,000×g for 20 min at 4° C., snap frozen in liquid nitrogen, and stored at −80° C. On the day of the experiment, membranes were thawed at room temperature and washed an additional 7 times in ice cold 5 mM Tris-HCl (pH 7.4) as described above. After the last wash, membranes were resuspended in assay buffer (5 mM Tris-acetate pH 7.4), and protein content was determined by the BCA assay.
[^3H] […] Then the tubes were washed three times with assay buffer (5 mM Tris-acetate PH 7.4), and the filters were analyzed by liquid scintillation to calculate the disintegrations per minute (DPM). Zero levels were determined in the absence of any glycine ligand and in the presence of 30 μM 5,7-Dichlorokynurenic acid (5,7-DCKA). Maximal stimulation was measured in the presence of 1 mM glycine. 50 μM glutamate was present in all samples.
For each data point (i.e., a single concentration of the test compound), the % maximal [^3H]
The efficacy for each compound, expressed as the % increase in [^3H]

Compound	Potency	Efficacy (% Increase in [3H] MK-801 Binding) (best-fit top value, relative to 1 mM glycine maximal stimulation)
C[C@@H](O)[C@H](NC(=O)[C@@H]1CCCN1C(=O)[C@@H]1CCCN1C(=O)[C@@H](N)CO)C(N)=O [Compound A, (S)—N-((2S,3R)-1-amino-3-hydroxy-1-oxobutan-2-yl)-1-((S)-1-((S)-2-amino-3-hydroxypropanoyl)pyrrolidine-2-carbonyl)pyrrolidine-2-carboxamide] (H-SPPT-NH2)	5 pM	–
C[C@@H](O)[C@H](N)C(=O)N1CCC[C@H]1C(=O)N1CCCC1(Cc1ccccc1)C(=O)N[C@H](C(N)=O)[C@@H](C)O (stereo partly drawn) [E, N-((2S,3R)-1-amino-3-hydroxy-1-oxobutan-2-yl)-1-((S)-1-((2S,3R)-2-amino-3-hydroxybutanoyl)-pyrrolidine-2-carbonyl)-2-benzylpyrrolidine-2-carboxamide]	0.2 pM	–
NC(=O)[C@H](CO)NC(=O)[C@@H]1CCCN1C(=O)[C@@H]1CCCN1C(=O)[C@@H](N)CO [Compound C, (S)—N—((S)-1-amino-3-hydroxy-1-oxopropan-2-yl)-1-((S)-1-((S)-2-amino-3-hydroxy-propanoyl)-pyrrolidine-2-carbonyl)-pyrrolidine-2-carboxamide] (H-SPPS-NH2)	16 pM	–
C[C@@H](O)[C@H](N)C(=O)N1CCC[C@H]1C(=O)N1CCC[C@H]1C(=O)N[C@@H](CO)C(N)=O [Compound B, (S)—N—((S)-1-amino-3-hydroxy-1-oxopropan-2-yl)-1-((S)-1-((2S,3R)-2-amino-3-hydroxybutanoyl)pyrrolidine-2-carbonyl)pyrrolidine-2-carboxamide] (H-TPPS-NH2)	6 pM	24%
